The nature of series [1]: Acid neutralization test of tablets, time for pH to rise to 7 (Example 1). It is filed as physicochemical. The settings on record: 840 mg tablet, basket 75 rpm, 50 ml SGF + 50 ml water. The protocol:
840 mg of each of magnesium hydroxide, tromethamine, and carbicarb were separately compressed into tablets utilizing a carver press having a 13 mm die at a 1 second dwell time and 500 pounds of compression force. Also, a first mixture containing 420 mg of magnesium hydroxide and 420 mg of tromethamine was also compressed into tablet-form using the method described above. Additionally, a second mixture containing 420 mg of magnesium hydroxide and 420 mg of carbicarb was compressed into tablet-form as previously described.
Each of the five different preparations was tested separately in the following manner. Tablets of each preparation were placed in a USP dissolution apparatus basket which was then attached to a spindle. The stirring component of the apparatus was set to rotate the basket at a speed of approximately 75 rpm. The loaded, rotating basket was then immersed into a beaker containing 50 ml of SGF and 50 ml of distilled de-ionized water. The pH of the medium in the beaker was monitored continuously throughout the test procedure utilizing a micro pH electrode.

Series [2] can be described thus: Degradation of lansoprazole as a function of pH at 37 degrees C. The settings on record: for half-life: buffer. The series is classed as physicochemical. From the text:
For example, lansoprazole is a substituted benzimidaole that is an acid labile pharmaceutical compound that inhibits gastric acid secretions. The affect of gastric pH on the degradation of an acid-labile drug such as lansoprazole is conveyed in Table 1. The data shown in Table 1 was collected at 37 degrees C., wherein “K” reflects the first order degradation constant.

The source of these data is patent US20100234430A1, “METHODS AND PHARMACEUTICAL FORMULATIONS FOR PROTECTING PHARMACEUTICAL COMPOUNDS FROM ACIDIC ENVIRONMENTS” (priority 2001, published 2010).

Take `[Mg+2].[OH-].[OH-]` [Magnesium hydroxide]: in series [1], the “Time to Raise the pH of SGF to 7 at 37 degrees C.” value came to 565 seconds.
On to `NC(CO)(CO)CO` [Tromethamine (TRIS), Tromethamine], for which, in series [1], the “Time to Raise the pH of SGF to 7 at 37 degrees C.” value is 75 seconds.
Broadly, the half-life is the time needed for the level to fall by half in the phase considered. Low readings indicate fast loss, high ones slow loss. As to `Cc1c(OCC(F)(F)F)ccnc1C[S+]([O-])c1nc2ccccc2[nH]1` (centres unmarked) [lansoprazole], the half-life in series [2] (pH 5, 37 degrees C.) was 31.2 min; in series [2] (pH 6, 37 degrees C.), 204 min; in series [2] (pH 7, 37 degrees C.), 1080 min; in series [2] (pH 8, 37 degrees C.) it was 2220 min; in series [2] (pH 9, 37 degrees C.) it was 4680 min. In addition, the “% Drug Remaining After 30 Minutes” value came to 51.37% in series [2] (pH 5, 37 degrees C.); 90.30% in series [2] (pH 6, 37 degrees C.); 98.10% in series [2] (pH 7, 37 degrees C.); 99.10% in series [2] (pH 8, 37 degrees C.); 99.57% in series [2] (pH 9, 37 degrees C.). For the same molecule, the “K (first order degradation constant)” value in series [2] (pH 5, 37 degrees C.) was determined as 1.33 hr.^−1; in series [2] (pH 6, 37 degrees C.), 0.20 hr.^−1; in series [2] (pH 7, 37 degrees C.), 0.04 hr.^−1; in series [2] (pH 8, 37 degrees C.), 0.02 hr.^−1; in series [2] (pH 9, 37 degrees C.) it was 0.01 hr.^−1.
